Measurements published in article PMC11555678, “Improved Broad Spectrum Antifungal Drug Synergies with Cryptomycin, a Cdc50-Inspired Antifungal Peptide” (ACS Infectious Diseases, 2024).
Where two headings read alike, the source gives them in different places.

Assays:
[1] = test system: C. glabrata 2001; type: cell-based, Candida glabrata; settings: RPMI1640, 37 °C, 48 h
Outline: (§1)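 MIC read after 2 days at 37 °C following CLSI M27 or M38 microdilution in RPMI1640 with yeast cells at 5000 cfu/mL. For combinations, media carried peptide at fixed final concentration alongside control MIC plates, and FIC index was derived.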

[2] = test system: C. albicans SC5413; experiment: microbe, parasite or virus in culture; type: cell-based, Candida albicans; settings: Candida albicans, SC5413; compound alone; RPMI1640, 37 °C, 48 h; read-out: MIC
Outline: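 Yeasts were grown overnight in YPD, washed twice in water, taken up in PBS and diluted to 5000 cfu/mL in RPMI. They were then added to plates holding 2-fold serial drug dilutions in RPMI1640 and incubated at 37 °C for 2 days.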

[3] = test system: C. neoformans H99; type: cell-based, Cryptococcus neoformans; settings: for MIC of antifungal in combination with (FITC)KKOO / MIC of antifungal in combination with KKOO / MIC of antifungal in combination with KKOO-NH2: RPMI1640, 37 °C; for MIC of antifungal in combination with KKOO / MIC of antifungal in combination with KKOO-NH2: 48 h
[4] = test system: Cg FKS2 S663P; experiment: Drug synergy (MIC in peptide-supplemented media); type: cell-based, Candida glabrata; settings: RPMI1640, 37 °C, 48 h
Outline: as §1

[5] = test system: Cg FKS1 S629P; experiment: Drug synergy (MIC in peptide-supplemented media); type: cell-based, Candida glabrata; settings: RPMI1640, 37 °C, 48 h
Outline: as §1

[6] = test system: C. albicans SC5413; type: cell-based, Candida albicans; settings: RPMI1640, 37 °C, 48 h; for MIC of antifungal in combination with KKOO: azole MICs unclear (intermediate phenotype); for MIC of antifungal in combination with KKOO-NH2: azole MICs could not be determined (intermediate phenotype)
Outline: as §1

[7] = test system: A. fumigatus AF293; experiment: Drug synergy (MIC in peptide-supplemented media); type: cell-based, Aspergillus fumigatus; settings: RPMI1640, 37 °C, 48 h, CAS: paradoxical growth; for MIC of antifungal in combination with KKOO: MIC = <20% growth; for MIC of antifungal in combination with KKOO-NH2: MIC = well with <20% growth
Outline: as §1

Compound: CCC(C)n1ncn(-c2ccc(N3CCN(c4ccc(OCC5COC(Cn6cncn6)(c6ccc(Cl)cc6Cl)O5)cc4)CC3)cc2)c1=O (stereo not drawn) [ITR, itraconazole]
- MIC of antifungal in combination with KKOO ([1]; +0 μg/mL KKOO (control)): 0.5 µg/mL
- MIC of antifungal in combination with KKOO-NH2 ([1]; +0 μg/mL KKOO-NH2 (control)): 0.5 µg/mL
- MIC of antifungal in combination with KKOO-NH2 ([1]; +1 μg/mL KKOO-NH2): 0.25 µg/mL
- MIC of antifungal in combination with KKOO ([1]; +1 μg/mL KKOO): 0.25 µg/mL
- MIC of antifungal in combination with KKOO-NH2 ([1]; +2 μg/mL KKOO-NH2): 0.125 µg/mL
- MIC of antifungal in combination with KKOO ([1]; +2 μg/mL KKOO): 0.125 µg/mL
- MIC of antifungal in combination with KKOO-NH2 ([1]; +4 μg/mL KKOO-NH2): 0.031 µg/mL
- MIC of antifungal in combination with KKOO ([1]; +4 μg/mL KKOO): 0.062 µg/mL
- MIC of antifungal in combination with KKOO ([1]; +8 μg/mL KKOO): 0.062 µg/mL
- MIC [2]: > 1 µg/mL
- MIC of antifungal in combination with (FITC)KKOO ([3]; +0 μg/mL (FITC)KKOO): 0.125 µg/mL
- MIC of antifungal in combination with KKOO ([3]; +0 μg/mL KKOO (control)): 0.125 µg/mL
- MIC of antifungal in combination with KKOO-NH2 ([3]; +0 μg/mL KKOO-NH2 (control)): 0.125 µg/mL
- MIC of antifungal in combination with KKOO-NH2 ([3]; +1 μg/mL KKOO-NH2): 0.031 µg/mL
- MIC of antifungal in combination with KKOO ([3]; +1 μg/mL KKOO): 0.062 µg/mL
- MIC of antifungal in combination with KKOO-NH2 ([3]; +2 μg/mL KKOO-NH2): 0.016 µg/mL
- MIC of antifungal in combination with KKOO ([3]; +2 μg/mL KKOO): 0.016 µg/mL
- MIC of antifungal in combination with (FITC)KKOO ([3]; +4 μg/mL (FITC)KKOO): 0.062 µg/mL
- MIC of antifungal in combination with KKOO-NH2 ([3]; +4 μg/mL KKOO-NH2): 0.008 µg/mL
- MIC of antifungal in combination with KKOO ([3]; +4 μg/mL KKOO): 0.016 µg/mL
- MIC of antifungal in combination with (FITC)KKOO ([3]; +8 μg/mL (FITC)KKOO): 0.031 µg/mL
- MIC of antifungal in combination with KKOO ([3]; +8 μg/mL KKOO): 0.008 µg/mL
- reduction of MIC of antifungal ([3]; in the presence of 2 μg/mL KKOO-NH2, 48 h): 8 fold
- MIC of antifungal in combination with KKOO ([4]; +0 μg/mL KKOO (control)): 0.031 µg/mL
- MIC of antifungal in combination with KKOO-NH2 ([4]; +0 μg/mL KKOO-NH2 (control)): 0.031 µg/mL
- MIC of antifungal in combination with KKOO-NH2 ([4]; +1 μg/mL KKOO-NH2): 0.016 µg/mL
- MIC of antifungal in combination with KKOO ([4]; +1 μg/mL KKOO): 0.016 µg/mL
- MIC of antifungal in combination with KKOO-NH2 ([4]; +2 μg/mL KKOO-NH2): 0.004 µg/mL
- MIC of antifungal in combination with KKOO ([4]; +2 μg/mL KKOO): 0.016 µg/mL
- MIC of antifungal in combination with KKOO-NH2 ([4]; +4 μg/mL KKOO-NH2): 0.002 µg/mL
- MIC of antifungal in combination with KKOO ([4]; +4 μg/mL KKOO): 0.556 µg/mL
- MIC of antifungal in combination with KKOO ([5]; +0 μg/mL KKOO (control)): 0.125 µg/mL
- MIC of antifungal in combination with KKOO-NH2 ([5]; +0 μg/mL KKOO-NH2 (control)): 0.062 µg/mL
- MIC of antifungal in combination with KKOO-NH2 ([5]; +1 μg/mL KKOO-NH2): 0.031 µg/mL
- MIC of antifungal in combination with KKOO ([5]; +1 μg/mL KKOO): 0.062 µg/mL
- MIC of antifungal in combination with KKOO-NH2 ([5]; +2 μg/mL KKOO-NH2): 0.016 µg/mL
- MIC of antifungal in combination with KKOO ([5]; +2 μg/mL KKOO): 0.031 µg/mL
- MIC of antifungal in combination with KKOO-NH2 ([5]; +4 μg/mL KKOO-NH2): 0.008 µg/mL
- MIC of antifungal in combination with KKOO ([5]; +4 μg/mL KKOO): 0.016 µg/mL
- MIC of antifungal in combination with KKOO ([6]; +0 μg/mL KKOO (control)): > 1 µg/mL
- MIC of antifungal in combination with KKOO-NH2 ([6]; +0 μg/mL KKOO-NH2 (control)): >1 µg/mL
- MIC of antifungal in combination with KKOO-NH2 ([6]; +1 μg/mL KKOO-NH2): >1 µg/mL
- MIC of antifungal in combination with KKOO ([6]; +1 μg/mL KKOO): > 1 µg/mL
- MIC of antifungal in combination with KKOO-NH2 ([6]; +2 μg/mL KKOO-NH2): >1 µg/mL
- MIC of antifungal in combination with KKOO ([6]; +2 μg/mL KKOO): > 1 µg/mL
- MIC of antifungal in combination with KKOO-NH2 ([6]; +4 μg/mL KKOO-NH2): >1 µg/mL
- MIC of antifungal in combination with KKOO ([6]; +4 μg/mL KKOO): > 1 µg/mL
- MIC of antifungal in combination with KKOO ([6]; +8 μg/mL KKOO): > 1 µg/mL
- MIC of antifungal in combination with KKOO ([7]; +0 μg/mL KKOO (control)): 0.125 µg/mL
- MIC of antifungal in combination with KKOO-NH2 ([7]; +0 μg/mL KKOO-NH2 (control)): 0.125 µg/mL
- MIC of antifungal in combination with KKOO-NH2 ([7]; +1 μg/mL KKOO-NH2): 0.125 µg/mL
- MIC of antifungal in combination with KKOO ([7]; +1 μg/mL KKOO): 0.125 µg/mL
- MIC of antifungal in combination with KKOO-NH2 ([7]; +2 μg/mL KKOO-NH2): 0.062 µg/mL
- MIC of antifungal in combination with KKOO ([7]; +2 μg/mL KKOO): 0.062 µg/mL
- MIC of antifungal in combination with KKOO-NH2 ([7]; +4 μg/mL KKOO-NH2): 0.062 µg/mL
- MIC of antifungal in combination with KKOO ([7]; +4 μg/mL KKOO): 0.062 µg/mL
- MIC of antifungal in combination with KKOO-NH2 ([7]; +8 μg/mL KKOO-NH2): 0.031 µg/mL
